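Growth conditions: 96-well plates. Treatment: test compound, 48 hours, 5 concentrations. Analysis: linear interpolation between bracketing concentrations; unreached endpoints set to highest concentration. The concentration for 50% growth inhibition is given as GI50.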 The source made the active and inactive calls. No stated cut-off is given here; in the data, active = GI50 up to about 1.1 µM and inactive = higher.
Assays:
Test in all cases: NCI tumour cell line growth inhibition, 48 h
UO-31 = tested on: UO-31
HL-60 = tested on: HL-60
HOP-62 = tested on: HOP-62
Hs-578T = tested on: Hs-578T
A549 = tested on: A549
NCI/ADR-RES = tested on: NCI/ADR-RES
MCF7 = tested on: MCF7
U-251 = tested on: U-251
SR = tested on: SR
Malme-3M = tested on: Malme-3M
SK-MEL-28 = tested on: SK-MEL-28
HCT-15 = tested on: HCT-15
MOLT-4 = tested on: MOLT-4
SK-OV-3 = tested on: SK-OV-3
T47D = tested on: T47D
MDA-N = tested on: MDA-N
OVCAR-8 = tested on: OVCAR-8
RXF 393 = tested on: RXF 393
LOX IMVI = tested on: LOX IMVI

Structure (SMILES) | GI50 (UO-31) | GI50 (HL-60) | GI50 (HOP-62) | GI50 (Hs-578T) | GI50 (A549) | GI50 (NCI/ADR-RES) | GI50 (MCF7) | GI50 (U-251) | GI50 (SR) | GI50 (Malme-3M) | GI50 (SK-MEL-28) | GI50 (HCT-15) [µM] | GI50 (MOLT-4) | GI50 (SK-OV-3) | GI50 (T47D) | GI50 (MDA-N) | GI50 (OVCAR-8) | GI50 (RXF 393) | GI50 (LOX IMVI)
O=C(N/N=C\c1ccc([N+](=O)[O-])cc1)c1ccccc1Nc1ccccc1C(=O)N/N=C/c1ccc([N+](=O)[O-])cc1 | > 100 µM (inactive) | 89.7 µM (inactive) | > 100 µM (inactive) | > 100 µM (inactive) | > 100 µM (inactive) | > 100 µM (inactive) | > 100 µM (inactive) | > 100 µM (inactive) | 79.3 µM (inactive) | 39.4 µM (inactive) | > 100 µM (inactive) | > 100 | 66.2 µM (inactive) | > 100 µM (inactive) | > 100 µM (inactive) | > 100 µM (inactive) | > 100 µM (inactive) | > 100 µM (inactive) | 
O=c1c2ccccc2nc2[nH][nH]c(=S)n12 | > 100 µM (inactive) | > 100 µM (inactive) | > 100 µM (inactive) | 43.3 µM (inactive) | > 100 µM (inactive) | > 100 µM (inactive) | > 100 µM (inactive) | > 100 µM (inactive) | > 100 µM (inactive) |  | > 100 µM (inactive) | > 100 | 58.6 µM (inactive) | > 100 µM (inactive) | > 100 µM (inactive) | > 100 µM (inactive) | > 100 µM (inactive) |  | > 100 µM (inactive)
Nc1ccc(-c2nc3ccccc3s2)cc1C#Cc1ccccc1 | 18.3 µM (inactive) | 26.5 µM (inactive) | 14.5 µM (inactive) | 21.5 µM (inactive) | 22.6 µM (inactive) | 21.4 µM (inactive) | 1.59 µM (inactive) | 20.1 µM (inactive) | 37.5 µM (inactive) | 12.2 µM (inactive) |  | 17.9 | 32.5 µM (inactive) | 24.3 µM (inactive) | 27 µM (inactive) | 17.9 µM (inactive) | 19.8 µM (inactive) | 17.3 µM (inactive) | 19 µM (inactive)
CCOC(=O)NCC(=O)NCC(=O)NCC(N)=O | > 100 µM (inactive) |  | > 100 µM (inactive) | > 100 µM (inactive) | > 100 µM (inactive) | > 100 µM (inactive) | > 100 µM (inactive) | > 100 µM (inactive) | > 100 µM (inactive) | > 100 µM (inactive) | > 100 µM (inactive) | > 100 | > 100 µM (inactive) | > 100 µM (inactive) | > 100 µM (inactive) | > 100 µM (inactive) | > 100 µM (inactive) | > 100 µM (inactive) | 
CC(=O)OCC1OC(n2c(C)cc(C)c(C#N)c2=S)C(OC(C)=O)C(OC(C)=O)C1OC(C)=O (centres undefined) | > 100 µM (inactive) | > 100 µM (inactive) | > 100 µM (inactive) | > 100 µM (inactive) | > 100 µM (inactive) | > 100 µM (inactive) | > 100 µM (inactive) | > 100 µM (inactive) | > 100 µM (inactive) | > 100 µM (inactive) | > 100 µM (inactive) | > 100 | > 100 µM (inactive) |  | > 100 µM (inactive) | > 100 µM (inactive) | > 100 µM (inactive) | > 100 µM (inactive) | > 100 µM (inactive)
COc1c(C)c(OCC=C(C)C)cc(CO)c1CO |  | 47.5 µM (inactive) | 56.5 µM (inactive) | 44.1 µM (inactive) | 47.5 µM (inactive) | 26.3 µM (inactive) | 38.5 µM (inactive) | 50.1 µM (inactive) | 18.2 µM (inactive) |  |  | 41.5 | 26.7 µM (inactive) | 97.3 µM (inactive) | 38.1 µM (inactive) | 71.3 µM (inactive) | 36 µM (inactive) | 10.7 µM (inactive) | 28.9 µM (inactive)
O=C1/C(=C/c2ccccc2O)N=C(c2ccccc2)N1C1Nc2cc3c(cc2S1)NC(N1C(=O)/C(=C/c2ccccc2O)N=C1c1ccccc1)S3 (centres undefined) | 23 µM (inactive) | 28.9 µM (inactive) | 31.2 µM (inactive) | 30.5 µM (inactive) |  | 10.5 µM (inactive) | 2.13 µM (inactive) | 29.6 µM (inactive) | 18.3 µM (inactive) |  | 65.3 µM (inactive) | 13.5 | 35.5 µM (inactive) | 35.8 µM (inactive) | 8.05 µM (inactive) | 14 µM (inactive) | 30.7 µM (inactive) | 23.7 µM (inactive) | 42.2 µM (inactive)
CC1C2CC(CC23OCC(CCl)O3)C1(C)C (centres undefined) | > 100 µM (inactive) | > 100 µM (inactive) | > 100 µM (inactive) | > 100 µM (inactive) | > 100 µM (inactive) | > 100 µM (inactive) | > 100 µM (inactive) |  | > 100 µM (inactive) | > 100 µM (inactive) | > 100 µM (inactive) | > 100 | > 100 µM (inactive) | > 100 µM (inactive) | > 100 µM (inactive) | > 100 µM (inactive) | > 100 µM (inactive) | > 100 µM (inactive) | > 100 µM (inactive)
FC(F)(F)c1cccnc1Sc1nc2ccccc2s1 | 32.1 µM (inactive) |  | 57.8 µM (inactive) | 45.7 µM (inactive) | > 100 µM (inactive) | > 100 µM (inactive) | > 100 µM (inactive) | > 100 µM (inactive) | 30.9 µM (inactive) | > 100 µM (inactive) | > 100 µM (inactive) | > 100 | 52.1 µM (inactive) |  | > 100 µM (inactive) | > 100 µM (inactive) | > 100 µM (inactive) | > 100 µM (inactive) | 
Cc1ccc(N(C(=O)Nc2ccc(F)c(Cl)c2)C2=NCC(C)S2)cc1 (centres undefined) | > 100 µM (inactive) | 23.8 µM (inactive) | > 100 µM (inactive) | > 100 µM (inactive) | 57.3 µM (inactive) | 22.6 µM (inactive) | 8.83 µM (inactive) | 50.6 µM (inactive) | 40.2 µM (inactive) | 77.3 µM (inactive) | 19.9 µM (inactive) | 52.7 | 31.6 µM (inactive) | > 100 µM (inactive) | 33 µM (inactive) | 46.7 µM (inactive) | 48.2 µM (inactive) |  | 30.2 µM (inactive)
COC(=O)/C=c1/c2ccccc2n2c1c1ccccc1[n+]2C | 7.13 µM (inactive) | 2.84 µM (inactive) | 3.05 µM (inactive) | 2.64 µM (inactive) | 3.82 µM (inactive) | 31.3 µM (inactive) | 3.34 µM (inactive) | 2.61 µM (inactive) |  | 2.98 µM (inactive) | 5.82 µM (inactive) | 13.4 | 4.27 µM (inactive) | 2.67 µM (inactive) | 3.86 µM (inactive) | 3.54 µM (inactive) | 3.33 µM (inactive) | 4.54 µM (inactive) | 4.27 µM (inactive)
CC(C)C(CC(=O)OCC(CO)OC(=O)CC(C(C)C)C(C)C)C(C)C (centres undefined) | 14.6 µM (inactive) |  | 10.5 µM (inactive) | 4.85 µM (inactive) | 11 µM (inactive) | 13.5 µM (inactive) | 17.5 µM (inactive) | 13.1 µM (inactive) | 22.1 µM (inactive) | 15.1 µM (inactive) | 16.2 µM (inactive) | 16.9 | 10.1 µM (inactive) | 16.7 µM (inactive) | 16.6 µM (inactive) | 13.6 µM (inactive) |  | 16.6 µM (inactive) | 
COC1OC(Cn2cc([N+](=O)[O-])nc2C)C(O)C(O)C1O (centres undefined) | > 100 µM (inactive) |  | > 100 µM (inactive) | > 100 µM (inactive) | > 100 µM (inactive) | > 100 µM (inactive) | > 100 µM (inactive) | > 100 µM (inactive) | > 100 µM (inactive) | 5.93 µM (inactive) | > 100 µM (inactive) | > 100 | > 100 µM (inactive) | > 100 µM (inactive) | > 100 µM (inactive) | > 100 µM (inactive) |  | > 100 µM (inactive) | 
CCN(CC)CCC(=O)OC1C(C)=CC(C)C(=O)CC(C(C)CC2CCC(O)C(OC)C2)OC(=O)C2CCCCN2C(=O)C(=O)[C@@]2(O)OC(CCC2C)CC(OC)\C(C)=C/C=C/C=C/C(C)CC(C)C(=O)C1OC (some centres undefined) | < 0.01 µM (active) | 1.96 µM (inactive) | < 0.01 µM (active) | < 0.01 µM (active) | < 0.01 µM (active) | 11.3 µM (inactive) | < 0.01 µM (active) | 10.4 µM (inactive) | < 0.01 µM (active) |  | 0.0791 µM (active) | 1.75 |  | < 0.01 µM (active) | < 0.01 µM (active) | 8.61 µM (inactive) |  | < 0.01 µM (active) | < 0.01 µM (active)
CC(=O)C1=C(c2ccccc2)N(C2OC(CO)C(O)C(O)C2O)C(S)=C(C#N)C1c1ccc(Cl)cc1 (centres undefined) | 28.8 µM (inactive) | 42.4 µM (inactive) | 30.2 µM (inactive) | 25.8 µM (inactive) | 39.4 µM (inactive) | 31.4 µM (inactive) | 20.1 µM (inactive) | 17.9 µM (inactive) | 29.1 µM (inactive) | 24.8 µM (inactive) | 20.7 µM (inactive) | 23 | 15.8 µM (inactive) |  | 10.3 µM (inactive) | 25.8 µM (inactive) | 33.5 µM (inactive) | 28.6 µM (inactive) | 18.5 µM (inactive)
CCN(CC)CCn1c2cc3c(cc2c(=O)c2cccnc21)OCCO3 |  | > 10 µM (inactive) | > 10 µM (inactive) | > 10 µM (inactive) | > 10 µM (inactive) | > 10 µM (inactive) | 7.82 µM (inactive) | > 10 µM (inactive) | 4.44 µM (inactive) | > 10 µM (inactive) | > 10 µM (inactive) | > 10 | 3.78 µM (inactive) | > 10 µM (inactive) | > 10 µM (inactive) | > 10 µM (inactive) | > 10 µM (inactive) | > 10 µM (inactive) | 
